ChEMBL document CHEMBL1201862, “PubChem BioAssay data set” (2004)
Active and inactive are the calls of the source.

Legend:
[1] = target: Mu-type opioid receptor (Homo sapiens, UniProt P35372); format: functional, cell-based;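 note: U2OS cells with beta-arrestin recruitment to OPRM1 by beta-gal complementation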
[2] = target: 5-hydroxytryptamine receptor 2A (Mus musculus, UniProt P35363); format: functional, cell-based;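 note: CHO-K1 cells with tagged receptor and beta-arrestin; agonist potency measured as compound-induced activation of the receptor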
[3] = test system: BJ; test: BJ-TERT fibroblast viability loss – cell-based, RAS-independent, luminescence, dose response (AID 1933); format: functional; conditions: Homo sapiens
[4] = A Cell Based Secondary Assay To Explore Cytotoxicity of Compounds that Sensitize Mycobacterium Tuberculosis to Beta-Lactam Antibiotics.; format: functional
[5] = test system: BJ; test: cells; format: functional, cell-based; conditions: Homo sapiens
[6] = target: Luciferin 4-monooxygenase (Photinus pyralis, UniProt P08659); test: inhibition of purified Photinus pyralis luciferase – biochemical, luminescence, dose response (AID 1891)
[7] = Luminescence Cell-Based Dose Confirmation HTS to Identify Inhibitors of Platelet Dense Granule Release. [Related pubchem assays: 1663 (Primary HTS), 1678 (Summary of Project)]; format: functional
[8] = test system: BJ; test: BJ-TERT-LT-ST fibroblast viability loss – cell-based, RAS-independent, luminescence, dose response (AID 1935); format: functional; conditions: Homo sapiens;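 note: BJ fibroblasts immortalized with TERT plus LT and ST oncogenes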
[9] = DRD fibroblast viability loss – cell-based, non-viral oncogenic, luminescence, dose response (AID 1934); format: functional; conditions: Homo sapiens
[10] = test system: BJ; test: growth inhibition of engineered Ras-driven BJ cells – cell-based, alamar blue fluorescence, cherrypicked samples, dose response (AID 2631); format: functional; conditions: Homo sapiens;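 note: confirmatory dose-response assay in RAS-dependent BJ fibroblasts engineered with TERT, LT and ST, with cytotoxicity read by fluorescence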
[11] = test system: INS1; test: INS-1E survival protection against cytokine death – cell-based, luminescence, retest, dose response (AID 449756); format: functional; conditions: Rattus norvegicus;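 note: cell death triggered by IL-1 beta plus TNF-alpha plus IFN-gamma mixture; protective hits raise ATP signal compared with cytokine alone wells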
[12] = blockers of HIV-1 envelope-mediated cell-cell fusion – cherry-pick, dose response (AID 652057); format: functional, cell-based
[13] = viability loss in CEM21 cells – cell-based, CellTiter-Glo luminescence, cherry-picked, cytotoxicity control for viral fusion inhibitor project, dose response (AID 652042); format: functional;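 note: potency for signal decrease meaning cytotoxicity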
[14] = off-target signal loss in HeLa-CEM21 co-culture – HeLa F-luc CTL cells, cherry-picked, counter-screen for HIV-1 Env fusion inhibitor project, dose response (AID 652040); format: functional, cell-based;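 note: potency for signal decrease marking cytotoxic or nonspecific inhibition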
[15] = HIV-1 AD8 envelope cell-cell fusion blockers – cherry-pick, dose response (AID 652062); format: functional, cell-based;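 note: luciferase signal from cell-cell fusion driven by HIV-1 clade B AD8 Env; potency is for inhibitors of fusion seen as a drop in luminescence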
[16] = viability of uninfected HEp-2 cells – cell-based, HTS, cytotoxicity control for RSV inhibitor project, dose response (AID 2410); format: functional; conditions: human respiratory syncytial virus
[17] = target: T1, Methionyl-tRNA synthetase, putative (Trypanosoma brucei brucei, UniProt Q38C91); format: functional, Trypanosoma brucei brucei strain 927/4 GUTat10.1
T1 sequence (Q38C91 whole entry): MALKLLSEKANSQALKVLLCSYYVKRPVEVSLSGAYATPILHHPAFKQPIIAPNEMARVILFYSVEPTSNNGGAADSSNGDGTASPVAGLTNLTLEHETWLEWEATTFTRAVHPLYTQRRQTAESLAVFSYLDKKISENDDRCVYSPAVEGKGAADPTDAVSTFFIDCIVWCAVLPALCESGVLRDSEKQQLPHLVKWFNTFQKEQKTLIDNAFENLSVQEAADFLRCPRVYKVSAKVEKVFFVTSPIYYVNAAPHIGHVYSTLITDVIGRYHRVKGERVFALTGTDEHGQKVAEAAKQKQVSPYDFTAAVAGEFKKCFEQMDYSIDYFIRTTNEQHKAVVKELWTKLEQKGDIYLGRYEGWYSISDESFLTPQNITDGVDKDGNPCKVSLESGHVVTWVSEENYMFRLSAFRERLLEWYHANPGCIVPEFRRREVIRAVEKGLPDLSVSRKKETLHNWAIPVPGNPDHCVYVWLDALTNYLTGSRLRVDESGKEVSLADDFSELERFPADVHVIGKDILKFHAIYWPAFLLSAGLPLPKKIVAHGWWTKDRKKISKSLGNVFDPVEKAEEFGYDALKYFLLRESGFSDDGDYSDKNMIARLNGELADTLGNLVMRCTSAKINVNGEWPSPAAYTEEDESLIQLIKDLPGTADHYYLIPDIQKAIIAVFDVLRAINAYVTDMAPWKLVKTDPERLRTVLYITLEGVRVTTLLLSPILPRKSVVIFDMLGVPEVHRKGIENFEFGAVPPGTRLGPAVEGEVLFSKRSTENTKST

[18] = Counterscreen for inhibitors of Trypanosoma brucei methionyl tRNA synthetase (MetRS): Luminescence-based cell-based high throughput dose response assay to identify compounds that are cytotoxic to Jurkat human T lymphocyte cells.; format: functional
[19] = target: T1, Methionyl-tRNA synthetase, putative; format: functional, Trypanosoma brucei brucei strain 927/4 GUTat10.1; remark: listed apart in the source
[20] = target: T2, Sentrin-specific protease 8 (Homo sapiens, UniProt Q96LD8); format: functional
T2 sequence (Q96LD8 whole entry): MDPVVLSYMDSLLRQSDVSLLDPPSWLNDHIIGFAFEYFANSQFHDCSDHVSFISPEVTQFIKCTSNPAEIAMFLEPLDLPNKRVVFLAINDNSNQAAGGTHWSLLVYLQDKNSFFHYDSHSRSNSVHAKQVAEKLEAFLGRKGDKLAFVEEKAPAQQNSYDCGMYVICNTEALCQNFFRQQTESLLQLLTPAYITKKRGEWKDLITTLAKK

[21] = target: T2, Sentrin-specific protease 8; format: functional; remark: listed apart in the source
[22] = target: T3, Caspase-3 (Homo sapiens, UniProt P42574); test: Dose-response confirmation of uHTS inhibitor hits of Sentrin-Specific Protease 8 in a Caspase-3 Fluorescence assay.; format: functional
T3 sequence (P42574 whole entry): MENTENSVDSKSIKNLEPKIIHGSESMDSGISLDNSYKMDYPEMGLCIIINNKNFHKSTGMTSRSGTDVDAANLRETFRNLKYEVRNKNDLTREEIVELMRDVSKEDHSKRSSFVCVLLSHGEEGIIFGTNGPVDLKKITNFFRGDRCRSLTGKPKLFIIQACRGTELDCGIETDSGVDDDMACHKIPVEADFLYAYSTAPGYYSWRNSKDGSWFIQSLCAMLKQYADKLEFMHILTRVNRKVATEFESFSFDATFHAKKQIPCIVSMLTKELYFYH

[23] = target: SWI/SNF-related matrix-associated actin-dependent regulator of chromatin subfamily A member 2 (Homo sapiens, UniProt P51531); test: Luminescence-based cell-based high throughput dose response assay to identify activators of the function of SWI/SNF related, matrix associated, actin dependent regulator of chromatin, subfamily a, member 2 (SMARCA2, BRM).; format: functional
[24] = Counterscreen for activators of the function of SWI/SNF related, matrix associated, actin dependent regulator of chromatin, subfamily a, member 2 (SMARCA2, BRM): Luminescence-based cell-based high throughput dose response assay to identify non-selective compounds using the VP16 reporter assay.; format: functional
[25] = target: T4, Sentrin-specific protease 1 (Homo sapiens, UniProt Q9P0U3); test: SENP1 catalytic domain blockers, concentration series – biochemical, kinetic FRET, dose response (AID 651697); format: functional; conditions: read-out: IC50_Mean
T4 sequence (Q9P0U3 whole entry): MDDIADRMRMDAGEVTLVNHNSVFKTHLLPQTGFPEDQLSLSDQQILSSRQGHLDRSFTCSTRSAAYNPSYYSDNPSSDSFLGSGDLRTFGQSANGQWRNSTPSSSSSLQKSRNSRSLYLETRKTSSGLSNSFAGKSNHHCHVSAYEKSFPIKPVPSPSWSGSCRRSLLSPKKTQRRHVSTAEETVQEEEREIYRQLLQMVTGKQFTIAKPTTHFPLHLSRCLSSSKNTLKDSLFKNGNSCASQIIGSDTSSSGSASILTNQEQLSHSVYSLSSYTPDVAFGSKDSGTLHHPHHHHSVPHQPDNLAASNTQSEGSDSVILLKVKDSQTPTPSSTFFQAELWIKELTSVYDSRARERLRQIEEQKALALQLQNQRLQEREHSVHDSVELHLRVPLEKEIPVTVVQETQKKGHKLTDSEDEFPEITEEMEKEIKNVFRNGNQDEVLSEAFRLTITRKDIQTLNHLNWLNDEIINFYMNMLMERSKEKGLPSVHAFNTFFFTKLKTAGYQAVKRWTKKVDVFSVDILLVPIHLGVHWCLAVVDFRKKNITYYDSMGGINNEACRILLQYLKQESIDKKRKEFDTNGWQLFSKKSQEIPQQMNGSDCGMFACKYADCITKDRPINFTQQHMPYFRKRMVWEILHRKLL

[26] = target: T5, Long-chain-fatty-acid--AMP ligase FadD28 (Mycobacterium tuberculosis, UniProt P9WQ59); test: Fluorescence polarization aasay to screen for inhibitors that compete for the binding of FadD28 to a bisubstrate Measured in Biochemical System Using Plate Reader - 2147-01_Inhibitor_Dose_CherryPick_Activity.; format: functional, Mycobacterium tuberculosis H37Rv
T5 sequence (P9WQ59 whole entry): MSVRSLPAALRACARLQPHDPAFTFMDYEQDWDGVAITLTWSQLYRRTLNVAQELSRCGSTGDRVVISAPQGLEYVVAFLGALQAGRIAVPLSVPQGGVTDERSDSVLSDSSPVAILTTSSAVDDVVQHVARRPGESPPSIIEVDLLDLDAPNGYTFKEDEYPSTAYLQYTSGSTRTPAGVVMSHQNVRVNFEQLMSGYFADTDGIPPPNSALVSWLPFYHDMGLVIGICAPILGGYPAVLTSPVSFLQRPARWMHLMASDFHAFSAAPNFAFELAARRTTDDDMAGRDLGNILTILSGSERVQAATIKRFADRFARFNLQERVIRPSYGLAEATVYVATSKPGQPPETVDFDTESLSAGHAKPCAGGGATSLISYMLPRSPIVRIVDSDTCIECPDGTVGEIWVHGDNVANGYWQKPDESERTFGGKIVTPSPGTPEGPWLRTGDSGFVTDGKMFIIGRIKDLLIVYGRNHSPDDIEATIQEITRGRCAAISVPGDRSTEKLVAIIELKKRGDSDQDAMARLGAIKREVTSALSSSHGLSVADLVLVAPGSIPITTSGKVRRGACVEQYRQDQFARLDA

[27] = target: T4, Sentrin-specific protease 1; test: Dose response confirmation of small molecule inhibitors of the catalytic domain of the SUMO protease, SENP1 in a FRET assay.; format: functional; conditions: read-out: IC50_Mean

Mu-type opioid receptor, sequence (P35372 whole entry): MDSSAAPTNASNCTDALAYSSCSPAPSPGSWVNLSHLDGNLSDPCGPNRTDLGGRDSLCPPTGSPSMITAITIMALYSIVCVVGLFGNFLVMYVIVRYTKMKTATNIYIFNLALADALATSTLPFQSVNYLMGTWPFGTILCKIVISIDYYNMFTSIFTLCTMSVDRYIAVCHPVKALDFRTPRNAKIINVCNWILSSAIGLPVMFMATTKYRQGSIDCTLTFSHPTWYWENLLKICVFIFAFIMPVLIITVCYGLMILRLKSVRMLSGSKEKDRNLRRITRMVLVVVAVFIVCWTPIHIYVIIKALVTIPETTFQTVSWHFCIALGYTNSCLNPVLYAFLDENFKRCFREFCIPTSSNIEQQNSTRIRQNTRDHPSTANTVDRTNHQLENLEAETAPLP
SWI/SNF-related matrix-associated actin-dependent regulator of chromatin subfamily A member 2, sequence (P51531 whole entry): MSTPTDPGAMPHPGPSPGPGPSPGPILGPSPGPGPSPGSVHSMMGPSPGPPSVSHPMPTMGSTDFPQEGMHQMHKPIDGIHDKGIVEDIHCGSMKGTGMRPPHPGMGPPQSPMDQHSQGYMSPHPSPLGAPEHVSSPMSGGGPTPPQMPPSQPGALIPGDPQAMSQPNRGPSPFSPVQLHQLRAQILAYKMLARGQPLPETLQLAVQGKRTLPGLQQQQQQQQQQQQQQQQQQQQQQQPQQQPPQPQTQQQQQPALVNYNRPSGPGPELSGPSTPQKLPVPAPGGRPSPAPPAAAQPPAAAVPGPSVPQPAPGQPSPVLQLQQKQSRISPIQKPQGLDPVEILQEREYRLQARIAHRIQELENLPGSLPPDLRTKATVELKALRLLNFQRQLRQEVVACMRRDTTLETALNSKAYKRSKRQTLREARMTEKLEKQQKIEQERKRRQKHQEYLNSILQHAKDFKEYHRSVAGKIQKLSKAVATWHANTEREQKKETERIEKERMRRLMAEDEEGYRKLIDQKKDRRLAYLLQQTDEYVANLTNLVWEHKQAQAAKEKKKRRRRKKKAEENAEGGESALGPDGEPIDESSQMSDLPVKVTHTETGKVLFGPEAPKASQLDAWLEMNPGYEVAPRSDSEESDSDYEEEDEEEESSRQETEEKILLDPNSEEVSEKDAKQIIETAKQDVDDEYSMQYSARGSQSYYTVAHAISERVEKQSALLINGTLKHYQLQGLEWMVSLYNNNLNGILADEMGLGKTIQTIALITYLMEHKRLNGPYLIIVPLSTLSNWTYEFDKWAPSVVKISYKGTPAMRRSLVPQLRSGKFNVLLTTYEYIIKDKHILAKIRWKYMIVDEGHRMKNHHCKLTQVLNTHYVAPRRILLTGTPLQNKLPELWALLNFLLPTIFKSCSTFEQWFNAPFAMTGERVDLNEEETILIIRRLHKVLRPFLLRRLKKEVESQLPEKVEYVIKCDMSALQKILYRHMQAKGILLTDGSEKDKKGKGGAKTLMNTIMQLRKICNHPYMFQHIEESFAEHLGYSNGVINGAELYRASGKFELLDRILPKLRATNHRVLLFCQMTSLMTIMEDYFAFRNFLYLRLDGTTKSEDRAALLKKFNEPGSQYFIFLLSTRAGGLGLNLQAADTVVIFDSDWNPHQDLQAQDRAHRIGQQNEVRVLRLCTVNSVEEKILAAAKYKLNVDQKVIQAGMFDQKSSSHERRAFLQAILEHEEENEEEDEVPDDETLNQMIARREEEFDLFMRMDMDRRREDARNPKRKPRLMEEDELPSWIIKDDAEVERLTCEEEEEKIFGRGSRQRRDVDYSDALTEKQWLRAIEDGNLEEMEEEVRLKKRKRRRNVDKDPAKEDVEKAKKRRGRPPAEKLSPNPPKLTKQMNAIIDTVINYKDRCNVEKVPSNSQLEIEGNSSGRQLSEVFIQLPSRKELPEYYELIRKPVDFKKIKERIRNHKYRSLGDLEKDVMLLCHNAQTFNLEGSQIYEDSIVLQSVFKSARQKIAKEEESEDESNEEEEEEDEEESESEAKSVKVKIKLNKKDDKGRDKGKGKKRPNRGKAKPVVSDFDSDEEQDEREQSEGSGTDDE
5-hydroxytryptamine receptor 2A, sequence (P35363 whole entry): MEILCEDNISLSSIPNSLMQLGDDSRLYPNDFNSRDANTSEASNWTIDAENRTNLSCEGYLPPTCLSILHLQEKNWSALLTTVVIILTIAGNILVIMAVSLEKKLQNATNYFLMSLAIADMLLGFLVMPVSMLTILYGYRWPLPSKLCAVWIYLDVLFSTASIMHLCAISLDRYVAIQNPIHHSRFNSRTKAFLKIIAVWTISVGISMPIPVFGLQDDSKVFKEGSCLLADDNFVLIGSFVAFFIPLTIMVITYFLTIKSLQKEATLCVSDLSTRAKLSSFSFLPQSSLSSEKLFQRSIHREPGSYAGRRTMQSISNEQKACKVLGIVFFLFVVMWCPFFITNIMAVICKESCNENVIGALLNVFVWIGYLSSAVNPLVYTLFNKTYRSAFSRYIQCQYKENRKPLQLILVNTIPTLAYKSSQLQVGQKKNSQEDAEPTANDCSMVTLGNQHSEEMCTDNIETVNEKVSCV
Luciferin 4-monooxygenase, sequence (P08659 whole entry): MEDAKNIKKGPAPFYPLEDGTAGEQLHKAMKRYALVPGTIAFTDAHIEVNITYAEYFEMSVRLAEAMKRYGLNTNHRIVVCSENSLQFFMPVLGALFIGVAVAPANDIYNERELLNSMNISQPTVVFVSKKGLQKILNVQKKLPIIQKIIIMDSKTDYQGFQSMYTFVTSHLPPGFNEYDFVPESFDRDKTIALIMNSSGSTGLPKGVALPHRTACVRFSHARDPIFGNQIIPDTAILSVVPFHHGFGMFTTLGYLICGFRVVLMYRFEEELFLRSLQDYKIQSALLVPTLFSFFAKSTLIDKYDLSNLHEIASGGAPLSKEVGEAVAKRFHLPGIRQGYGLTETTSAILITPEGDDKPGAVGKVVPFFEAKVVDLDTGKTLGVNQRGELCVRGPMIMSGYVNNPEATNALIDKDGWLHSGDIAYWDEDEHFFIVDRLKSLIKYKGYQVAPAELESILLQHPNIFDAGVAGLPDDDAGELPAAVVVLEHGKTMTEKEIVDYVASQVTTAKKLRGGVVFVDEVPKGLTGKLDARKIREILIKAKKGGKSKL

## Cc1cccc(CN2CCN(c3ncccn3)CC2)c1
[1]
  EC50: 92.5 µM (inactive)
[2]
  EC50: 0.182 µM (active)

## O=C(Nc1nc2ccccc2[nH]1)c1ccccc1F
[3]
  EC50: 2.44 µM (active)
[4]
  CC50: 8.56 µM (active)
[5]
  EC50: 2.23 µM (active)
[6]
  EC50: 1.19 µM (active)
[7]
  EC50: 1.13 µM (active)
[8]
  EC50: 6.85 µM (inconclusive)
[9]
  EC50: 1.86 µM (active)
[10]
  EC50: > 133 µM (inactive)
[11]
  AC50: 3.06 µM (active)
[12]
  AC50: 3.82 µM (active)
[13]
  AC50: 5.17 µM (active)
[14]
  AC50: 6.83 µM (active)
[15]
  AC50: 6.17 µM (active)

## O=C(NCc1nc2ccccc2[nH]1)C1=C[C@H](c2ccc3c(c2)OCO3)C[C@H](OCc2ccc(CO)cc2)O1
[16]
  CC50: > 50 µM (active)
[17]
  IC50: 8.12 µM (active)
[18]
  IC50: 83.3 µM (inactive)
[19]
  IC50: 2.79 µM (active)

## O=C1/C(=C/NCCc2ccccc2)c2ccccc2C(=O)N1Cc1ccccc1
[20]
  IC50: 4.54 µM (active)
[21]
  IC50: 10.9 µM (active)
[22]
  IC50: 83.2 µM (inactive)

## O=C(c1n[nH]cc1-c1cccc(Br)c1)C1CO1 (configuration not stated)
[23]
  EC50: > 91.2 µM (inactive)
[24]
  EC50: > 91.2 µM (inactive)

## COc1cc(/C=C2\CCCc3c2nc2ccccc2c3C(=O)O)cc(Br)c1O
[25]
  IC50: 3.84 µM (active)
[26]
  AC50: 63.8 µM (active)
[27]
  IC50: 2.85 µM (active)
